Measured values reported in paper PMC10011554, “BET inhibitor trotabresib in heavily pretreated patients with solid tumors and diffuse large B-cell lymphomas” (Nature Communications, 2023).
“And” between values parts separate entries of the source, which are not always exact repeats. Equal entries are not always repeated. Where two headings read alike, the source gives them in different places.

Assays:
CCR1 mRNA = test: Blood CCR1 mRNA levels (QuantiGene, normalized to PPIB); type: in vivo, human; settings: for decrease of blood PD marker CCR1 achieved: part A
Procedure: Changes in peripheral CCR1 mRNA levels, expression of which is modulated following BET inhibition, were assessed using QuantiGene technology (Thermo Fisher Scientific) and normalized to the expression of a control gene, peptidylprolyl isomerase B (PPIB). The data were presented as a percentage of pre-dose mRNA levels.

TMD8 (ABC DLBCL) = test system: TMD8 (ABC DLBCL); parameters: method as in Report CC-90010-Pharm-1018; settings: TMD8, Experiment 1, ref Report CC-90010-Pharm-1018; read-out: absolute IC50, proliferation; cited from earlier work
OCI-LY-3 (ABC DLBCL) = test system: OCI-LY-3 (ABC DLBCL); parameters: method as in Report CC-90010-Pharm-1018; settings: OCI-LY-3, Experiment 1, ref Report CC-90010-Pharm-1018; read-out: absolute IC50, proliferation; cited from earlier work
SU-DHL-4 (GCB DLBCL) = test system: SU-DHL-4 (GCB DLBCL); parameters: method as in Report CC-90010-Pharm-1018; settings: read-out: absolute IC50, proliferation, cited from earlier work
GBM3 GBM PDX = test system: GBM3 GBM PDX; parameters: method as in Unpublished data from Celgene Corporation; settings: ref Unpublished data from Celgene Corporation, cited from earlier work
CYP3A4/5, CYP2C8 = test system: CYP3A4/5, CYP2C8; parameters: method as in Investigator's Brochure; settings: ref Investigator's Brochure; cited from earlier work
CYP2C19 = test system: CYP2C19; parameters: method as in Investigator's Brochure; settings: CYP2C19, ref Investigator's Brochure; read-out: IC50, direct inhibition; cited from earlier work
[1] = test system: CYP1A2, CYP2A6, CYP2B6, CYP2E1 and CYP3A4/5; parameters: method as in Investigator's Brochure; settings: CYP1A2, CYP2A6, CYP2B6, CYP2E1 and CYP3A4/5, ref Investigator's Brochure; cited from earlier work

Q: For `Cn1cc(-c2cc(S(C)(=O)=O)ccc2OCC2CC2)c2ccccc2c1=O` [trotabresib], which “decrease of blood PD marker CCR1 achieved” value (CCR1 mRNA; 30 mg 3-days-on/11-days off, 4 hours post last dose in the first cycle) is on record?
A: Its value is no less than 50%.

Q: And the “decrease of blood PD marker CCR1 achieved” value (CCR1 mRNA; 45 mg 4-days-on/24-days-off)?
A: Its value is no less than 50%.

Q: And the “percentage of baseline CCR1 expression, individual patients” value (CCR1 mRNA; part B, 30 mg/day (n = 2), 4 h after last dose)?
A: Its value is 13.4467 % of baseline and 130.198 % of baseline.

Q: What about the “percentage of baseline CCR1 expression, individual patients” value (CCR1 mRNA; part B, 30 mg/day (n = 3), 4 h after first dose) of the same molecule?
A: Its value is 50.27 % of baseline and 55.3963 % of baseline and 80.5103 % of baseline.

Q: What about the “Mean CCR1 mRNA level” value (CCR1 mRNA; part B, 45 mg/day 4 days on/24 days off, 4 h after the first and last dose) of the same molecule?
A: Its value is < 50 % of baseline.

Q: And the “mean reduction of blood CCR1 mRNA” value (CCR1 mRNA; part B, 45 mg/day 4 days on/24 days off, after the first and last dose)?
A: Its value is greater than 50%.

Q: And the “percentage of baseline CCR1 expression, individual patients Pt 1-16” value (“percentage … individual patients Pt 1-16” below) (CCR1 mRNA; part B, 45 mg/day 4 days on/24 days off, time 2 h)?
A: The value was 30.5369 % of baseline and 28.4986 % of baseline and 30.4914 % of baseline and 56.7025 % of baseline and 34.2349 % of baseline and 126.292 % of baseline and 41.5689 % of baseline and 39.5781 % of baseline and 38.6952 % of baseline.

Q: And the “percentage … individual patients Pt 1-16” value (CCR1 mRNA; part B, 45 mg/day 4 days on/24 days off, time 72 h)?
A: The value was 11.6428 % of baseline and 66.6434 % of baseline and 61.1466 % of baseline and 71.42 % of baseline and 107.064 % of baseline and 92.4076 % of baseline and 206.706 % of baseline and 11.5951 % of baseline and 29.4034 % of baseline and 32.6074 % of baseline and 46.3108 % of baseline and 35.5399 % of baseline and 51.254 % of baseline and 16.3541 % of baseline and 56.3318 % of baseline and 47.472 % of baseline.

Q: What about the “percentage … individual patients Pt 1-16” value (CCR1 mRNA; part B, 45 mg/day 4 days on/24 days off, time 74 h) of the same molecule?
A: Its value is 7.664 % of baseline and 43.5783 % of baseline and 101.397 % of baseline and 68.6148 % of baseline and 66.624 % of baseline and 90.5744 % of baseline and 6.3621 % of baseline and 11.918 % of baseline and 23.0451 % of baseline and 38.3287 % of baseline and 18.1003 % of baseline and 30.2477 % of baseline and 30.0183 % of baseline and 30.3305 % of baseline.

Q: What about the “percentage … individual patients Pt 1-16” value (CCR1 mRNA; part B, 45 mg/day 4 days on/24 days off, time 76 h) of the same molecule?
A: Its value is 7.416 % of baseline and 22.7163 % of baseline and 45.8741 % of baseline and 84.9845 % of baseline and 62.1329 % of baseline and 102.299 % of baseline and 97.8745 % of baseline and 12.7872 % of baseline and 26.7231 % of baseline and 38.7251 % of baseline and 59.7173 % of baseline and 32.5849 % of baseline and 15.5412 % of baseline and 32.2909 % of baseline and 34.1593 % of baseline.

Q: What about the “percentage … individual patients Pt 1-16” value (CCR1 mRNA; part B, 45 mg/day 4 days on/24 days off, time 96 h) of the same molecule?
A: Its value is 18.2209 % of baseline and 101.061 % of baseline and 57.0673 % of baseline and 66.6995 % of baseline and 126.329 % of baseline and 107.431 % of baseline and 11.7759 % of baseline and 20.7746 % of baseline and 24.4742 % of baseline and 39.7466 % of baseline and 30.1049 % of baseline and 35.253 % of baseline and 12.8666 % of baseline and 60.4272 % of baseline and 48.4025 % of baseline.

Q: And the “percentage … individual patients Pt 1-16” value (CCR1 mRNA; part B, 45 mg/day 4 days on/24 days off, time 168 h)?
A: The value was 1110.93 % of baseline and 46.7528 % of baseline and 137.362 % of baseline and 245.348 % of baseline and 178.841 % of baseline and 306.585 % of baseline and 142.224 % of baseline and 191.429 % of baseline and 72.8857 % of baseline and 69.6406 % of baseline and 101.659 % of baseline and 69.3899 % of baseline and 160.385 % of baseline and 78.4141 % of baseline and 220.588 % of baseline.

Q: And the “percentage … individual patients Pt 1-16” value (CCR1 mRNA; part B, 45 mg/day 4 days on/24 days off, time 192 h)?
A: The value was 44.5123 % of baseline and 125.959 % of baseline and 259.615 % of baseline and 202.75 % of baseline and 242.493 % of baseline and 146.374 % of baseline and 154.035 % of baseline and 288.7 % of baseline and 109.004 % of baseline and 72.27 % of baseline and 78.3761 % of baseline and 79.513 % of baseline and 168.811 % of baseline and 147.701 % of baseline and 179.93 % of baseline.

Q: What about the “percentage of baseline CCR1 expression, individual patients” value (CCR1 mRNA; part B, 45 mg/day (n = 15), 4 h after last dose) of the same molecule?
A: Its value is 26.7231 % of baseline and 32.2909 % of baseline and 32.5849 % of baseline and 34.1593 % of baseline and 38.7251 % of baseline and 45.8741 % of baseline and 59.7173 % of baseline and 62.1329 % of baseline and 84.9845 % of baseline and 97.8745 % of baseline and 102.299 % of baseline and 7.416 % of baseline and 12.7872 % of baseline and 15.5412 % of baseline and 22.7163 % of baseline.

Q: And the “percentage of baseline CCR1 expression, individual patients” value (CCR1 mRNA; part B, 45 mg/day (n = 16), 4 h after first dose)?
A: The value was 31.799 % of baseline and 32.0053 % of baseline and 36.1061 % of baseline and 40.3422 % of baseline and 46.5342 % of baseline and 46.6648 % of baseline and 52.9092 % of baseline and 58.7813 % of baseline and 59.2329 % of baseline and 60.0574 % of baseline and 60.1703 % of baseline and 87.3968 % of baseline and 24.9251 % of baseline and 27.9014 % of baseline and 28.1552 % of baseline and 31.5602 % of baseline.

Q: And the IC50 (TMD8 (ABC DLBCL))?
A: The IC50 was 190 nM.

Q: What about the IC50 (OCI-LY-3 (ABC DLBCL)) of the same molecule?
A: The IC50 was 510 nM.

Q: What about the IC50 (SU-DHL-4 (GCB DLBCL); SU-DHL-4, Experiment 1, ref Report CC-90010-Pharm-1018) of the same molecule?
A: The IC50 was 160 nM.

Q: And the IC50 (SU-DHL-4 (GCB DLBCL); SU-DHL-4, Table 2, ref Report CC-90010-Pharm-1018)?
A: Its IC50 is 304 nM.

Q: What about the TGI (GBM3 GBM PDX; GBM3, 6 mg/kg orally BID) of the same molecule?
A: The TGI was 76%.

Q: And the TGI (GBM3 GBM PDX; GBM3, 12 mg/kg orally QD)?
A: The TGI was 63%.

Q: And the enzymes mediating metabolism (CYP3A4/5, CYP2C8)?
A: The enzymes mediating metabolism was “mediated primarily by CYP3A4/5 with minor involvement of CYP2C8”.

Q: What about the IC50 (CYP2C19) of the same molecule?
A: Its IC50 is no less than 13900 nM.

Q: What about the direct inhibitory effect [1] of the same molecule?
A: Its direct inhibitory effect is “little to no direct inhibitory effect”.
